Measured values reported in ChEMBL document CHEMBL1201862, “PubChem BioAssay data set” (2004).
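Growth conditions: 96-well plates. Treatment: test compound, 48 hours, 5 concentrations. Analysis: linear interpolation between bracketing concentrations; unreached endpoints set to highest concentration. Abbreviation: GI50, concentration required for 50% inhibition of growth.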 Active and inactive are the calls of the source. No stated cut-off is given here; in the data, active = GI50 up to about 1.1 µM and inactive = higher.

Tests used:
Test in all cases: inhibition of tumour cell growth, NCI panel, 48 h
[1] = test system: MCF7
[2] = test system: IGROV-1
[3] = test system: ACHN
[4] = test system: SNB-75
[5] = test system: UO-31
[6] = test system: NCI-H226
[7] = test system: SK-MEL-5
[8] = test system: OVCAR-3
[9] = test system: BT-549
[10] = test system: HCT-116
[11] = test system: HCC 2998
[12] = test system: PC-3
[13] = test system: SF-268
[14] = test system: NCI/ADR-RES
[15] = test system: MDA-MB-435
[16] = test system: EKVX
[17] = test system: UACC-257
[18] = test system: MOLT-4

Measured: GI50

CCOC(=O)Cc1csc2[n+]1C(=O)/C(=C\c1cccc(Cl)c1Cl)S2
inactive: [1] 28.1 µM | [2] 20.1 µM | [3] 17.9 µM | [4] 23.8 µM | [5] 12.7 µM | [6] 14.8 µM | [7] 8.93 µM | [8] 7.05 µM | [9] 17.6 µM | [10] 12.7 µM | [11] 17.7 µM | [12] 13.3 µM | [13] 29.2 µM | [14] 16.7 µM | [15] 13.7 µM | [16] 17.2 µM | [17] 20.1 µM | [18] 10.3 µM

CCCCOC(=O)C(=O)C(CC(CC)C(=O)c1ccccc1)C(=O)C=C(C)C (stereo unspecified)
inactive: [1] > 100 µM | [2] > 100 µM | [3] > 100 µM | [4] > 100 µM | [5] > 100 µM | [6] > 100 µM | [7] > 100 µM | [8] > 100 µM | [9] > 100 µM | [10] > 100 µM | [11] > 100 µM | [12] > 100 µM | [13] > 100 µM | [14] > 100 µM | [15] > 100 µM | [16] > 100 µM | [17] > 100 µM | [18] > 100 µM

O=C1Nc2ccccc2/C1=C1/Nc2ccccc2/C1=N\OCCNCC(O)C(O)C(O)C(O)CO (stereo unspecified)
inactive: [1] 12.4 µM | [2] 6.62 µM | [3] > 50 µM | [4] 11 µM | [5] > 50 µM | [6] 13.8 µM | [7] 8.36 µM | [8] 11.6 µM | [9] 13.9 µM | [10] 13.4 µM | [11] 11.8 µM | [12] 10.2 µM | [13] 11.9 µM | [14] > 50 µM | [15] 9.86 µM | [16] 30.3 µM | [17] 13.5 µM | [18] 12.9 µM

COc1ccc(N2C(=O)C3c4[nH]c5ccccc5c4C4CCC(C(C)(C)C)CC4C3C2=O)c(C)c1 (stereo unspecified)
inactive: [1] > 100 µM | [2] > 100 µM | [3] > 100 µM | [4] > 100 µM | [5] > 100 µM | [6] > 100 µM | [7] > 100 µM | [8] > 100 µM | [9] > 100 µM | [10] > 100 µM | [11] > 100 µM | [12] > 100 µM | [13] > 100 µM | [14] > 100 µM | [15] > 100 µM | [16] > 100 µM | [17] > 100 µM | [18] > 100 µM

COc1c(C)c(C/C=C(\C)CC/C=C(\C)CC/C=C(\C)CCC=C(C)C)c(OC)c(OC)c1OC
inactive: [1] > 100 µM | [2] > 100 µM | [3] > 100 µM | [4] > 100 µM | [5] > 100 µM | [7] > 100 µM | [8] > 100 µM | [9] > 100 µM | [10] > 100 µM | [11] > 100 µM | [12] > 100 µM | [13] > 100 µM | [14] > 100 µM | [15] > 100 µM | [16] > 100 µM | [17] > 100 µM | [18] > 100 µM

[N-]=[N+]=C(C(=O)N1CCCC1=O)S(=O)(=O)c1ccccc1
inactive: [1] 32.7 µM | [2] > 100 µM | [3] > 100 µM | [4] 87.7 µM | [5] > 100 µM | [7] 98.9 µM | [8] 76 µM | [9] > 100 µM | [10] 80.4 µM | [11] > 100 µM | [12] > 100 µM | [13] > 100 µM | [14] > 100 µM | [15] 77.8 µM | [16] > 100 µM | [17] > 100 µM | [18] 50.2 µM
